Data: PubChem BioAssay (NCI)
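Grown in 96-well plates, cells were treated for 48 hours with each compound at five concentrations. Insufficient inhibition: endpoint recorded as highest concentration tested. TGI: total growth inhibition.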

What was measured:
Test in all cases: DTP human tumour cell line panel, 48 h
[1] = tested on: SK-MEL-5 melanoma
[2] = tested on: HCC-2998 colon
[3] = tested on: IGROV1 ovarian
[4] = tested on: CCRF-CEM leukemia
[5] = tested on: U251 CNS
[6] = tested on: ACHN renal
[7] = tested on: HOP-62 NSCLC
[8] = tested on: RXF 393 renal
[9] = tested on: UACC-257 melanoma
[10] = tested on: EKVX NSCLC
[11] = tested on: NCI-H460 lung
[12] = tested on: OVCAR-4 ovarian
[13] = tested on: UACC-62 melanoma
[14] = tested on: M14 melanoma
[15] = tested on: SF-268 CNS
[16] = tested on: HOP-92 NSCLC
[17] = tested on: M19-MEL melanoma
[18] = tested on: SF-539 CNS
[19] = tested on: DMS 273 small cell lung
[20] = tested on: LXFL 529 NSCLC
[21] = tested on: HCT-15 colon
[22] = tested on: SW-620 colon
[23] = tested on: SNB-78 CNS
[24] = tested on: SNB-75 CNS
[25] = tested on: HCT-116 colon
[26] = tested on: OVCAR-3 ovarian
[27] = tested on: DLD-1 colon
[28] = tested on: SK-OV-3 ovarian
[29] = tested on: COLO 205 colon
[30] = tested on: SK-MEL-28 melanoma
[31] = tested on: TK-10 renal
[32] = tested on: SR leukemia
[33] = tested on: UO-31 renal
[34] = tested on: SN12C renal
[35] = tested on: OVCAR-8 ovarian
[36] = tested on: 786-0 renal
[37] = tested on: SK-MEL-2 melanoma
[38] = tested on: KM12 colon
[39] = tested on: DMS 114 small cell lung
[40] = tested on: K-562 leukemia
[41] = tested on: RXF-631 renal
[42] = tested on: LOX IMVI melanoma
[43] = tested on: NCI-H522 lung
[44] = tested on: HOP-18 NSCLC
[45] = tested on: SF-295 CNS
[46] = tested on: CAKI-1 renal
[47] = tested on: MOLT-4 leukemia
[48] = tested on: A549 NSCLC
[49] = tested on: KM20L2 colon
[50] = tested on: SNB-19 CNS
[51] = tested on: OVCAR-5 ovarian
[52] = tested on: NCI-H23 lung
[53] = tested on: A498 renal
[54] = tested on: MALME-3M melanoma
[55] = tested on: NCI-H226 lung

Work on `CN1C(=O)c2cccc3c([N+](=O)[O-])ccc(c23)C1=O` yielded a TGI [1] of 32.6 µM, a TGI [2] of 17.4 µM and a TGI [3] of 9.43 µM. The TGI [4] was 39.5 µM, the TGI [5] was 13.8 µM and the TGI [6] was 21.7 µM. It also gave a TGI [7] of 24.7 µM, a TGI [8] of 8.61 µM and a TGI [9] of 21.6 µM. For the same compound, the TGI [10] was 29.4 µM, the TGI [11] was 11.7 µM and the TGI [12] was 25.9 µM. The TGI [13] was 4.03 µM, the TGI [14] was 23.1 µM and the TGI [15] was 23.5 µM. The TGI [16] was 19.9 µM, the TGI [17] was 24.5 µM and the TGI [18] was 26.2 µM. For the same compound, the TGI [19] was 15.7 µM, the TGI [20] was 3.89 µM and the TGI [21] was 11 µM. It also gave a TGI [22] of 6.12 µM, a TGI [23] of 32 µM and a TGI [24] of 25.1 µM. For the same compound, the TGI [25] was 18.9 µM, the TGI [26] was 11.4 µM and the TGI [27] was 12.1 µM. It also gave a TGI [28] of 27.9 µM, a TGI [29] of 19.8 µM and a TGI [30] of 32.9 µM. It also gave a TGI [31] of 15.6 µM, a TGI [32] of 14 µM and a TGI [33] of 26.7 µM. For the same compound, the TGI [34] was 24.9 µM, the TGI [35] was 18.9 µM and the TGI [36] was 21 µM. The TGI [37] was 24.8 µM, the TGI [38] was 18.3 µM and the TGI [39] was 11.2 µM. It also gave a TGI [40] of 25 µM, a TGI [41] of 17.6 µM and a TGI [42] of 18.9 µM. The TGI [43] was 2.91 µM, the TGI [44] was 30.8 µM and the TGI [45] was 28.1 µM. It also gave a TGI [46] of 5.17 µM, a TGI [47] of 28.2 µM and a TGI [48] of 26.8 µM. It also gave a TGI [49] of 19.5 µM, a TGI [50] of 28 µM and a TGI [51] of 13.4 µM. The TGI [52] was 24.7 µM, the TGI [53] was 5.64 µM and the TGI [54] was 31.1 µM. For the same compound, the TGI [55] was 4.05 µM.
